41 compounds from article PMC12188297 (2025) can be followed below.

One test concerns flexible GA-rich RNA, 5'-U(GAAG)2GU (RNA, single strand) UGAAGGAAGGU
The test is described as follows: fluorescence polarization. The conditions noted are these: Na+ 50 mM; 25 mM MES pH 6.1, 0.002% Triton X, 25 °C; ligand fluorescence.
Take `CCn1c(=O)c(-c2cc(F)c3nc(C)cn3c2)cc2ccc(N3CCN[C@@H](C)C3)cc21`: the equilibrium dissociation constant (Kd) stood at 39.7 ± 11.5 µM.
`CN1CCN(c2cc(F)c3cc(-c4ccc(Cl)cc4)c(=O)oc3c2)CC1` gave a Kd of 42.8 ± 2.7 µM.
Turning to `CN1CCN(c2ccc3cc(-c4ccc(Cl)cc4)c(=O)oc3c2)CC1`, the Kd came out at 37.2 ± 1.0 µM.
The same measure, in the same setting: the figure for `CNC1CCN(c2ccc3cc(-c4cc(F)c5nc(C)cn5c4)c(=O)oc3c2)C1` (centres unmarked) is 19.3 ± 2.3 µM; for `CNC1CCN(c2ccc3cc(-c4cc(F)c5nc(C)cn5c4)c(=O)oc3c2)CC1` it is 16.7 ± 0.5 µM; for `COc1cn2cc(-c3cc4ccc(N5CCNCC5)cc4oc3=O)nc2cn1` it is 39.6 ± 0.4 µM.
Regarding `C[C@H]1CN(c2ccc3cc(-c4cc(F)c5c(cnn5C)c4)c(=O)oc3c2)CCN1`, the Kd is 11.6 ± 0.01 µM.
Compound `C[C@H]1CN(c2ccc3cc(-c4cc(F)c5nn(C)cc5c4)c(=O)oc3c2)CCN1` yielded a dissociation constant (Kd) of 12.6 ± 0.4 µM.
Still for that read-out and setting: the figure for `Cc1cn2cc(-c3cc4c(C)cc(N5CCN[C@@H](C)C5)cc4oc3=O)cc(F)c2n1` is 19.3 ± 0.9 µM.
`Cc1cn2cc(-c3cc4ccc(N5CC6(CNC6)C5)cc4oc3=O)cc(F)c2n1` had a Kd of 32.0 ± 2.1 µM.
Still for that read-out and setting: next, `Cc1cn2cc(-c3cc4ccc(N5CC6CC(C5)N6)cc4oc3=O)cc(F)c2n1`: 10.7 ± 0.9 µM.
Compound `Cc1cn2cc(-c3cc4ccc(N5CC6CCCNC6C5)cc4oc3=O)cc(F)c2n1` (centres unmarked) gave an equilibrium dissociation constant (Kd) of 13.5 ± 2.0 µM.
For `Cc1cn2cc(-c3cc4ccc(N5CC6CNCC6C5)cc4oc3=O)cc(F)c2n1` (centres unmarked), the dissociation constant Kd amounted to 18.2 ± 1.9 µM.
Compound `Cc1cn2cc(-c3cc4ccc(N5CCN(C)CC5)cc4oc3=O)cc(F)c2n1` came in with a Kd of 10.88 ± 0.3 µM.
The same measure, in the same setting: the figure for `Cc1cn2cc(-c3cc4ccc(N5CCN(C)CC5)cc4oc3=O)nc2c(C)n1` is 40.4 ± 6.5 µM; for `Cc1cn2cc(-c3cc4ccc(N5CCN(CC6CCOCC6)[C@@H](C)C5)cc4oc3=O)cc(F)c2n1` it is 12.0 ± 0.4 µM.
Same read-out and setting: next, `Cc1cn2cc(-c3cc4ccc(N5CCN[C@@H](C)C5)c(C)c4oc3=O)cc(F)c2n1`: 11.1 ± 2.8 µM.
On the same count and under the same terms, next, `Cc1cn2cc(-c3cc4ccc(N5CCN[C@@H](C)C5)cc4[nH]c3=O)cc(F)c2n1`: 33.3 ± 1.3 µM.
For the compound `Cc1cn2cc(-c3cc4ccc(N5CCN[C@@H](C)C5)cc4n(CC4CC4)c3=O)cc(F)c2n1`, the Kd turned out to be 42.6 ± 15.2 µM.
Same read-out and setting: next, `Cc1cn2cc(-c3cc4ccc(N5CCN[C@@H](C)C5)cc4n(CCO)c3=O)cc(F)c2n1`: 40.1 ± 5.2 µM; `Cc1cn2cc(-c3cc4ccc(N5CCN[C@@H](C)C5)cc4n4cnnc34)cc(F)c2n1`: 16.4 ± 1.1 µM; `Cc1cn2cc(-c3cc4ccc(N5CCN[C@@H](C)C5)cc4oc3=O)cc(F)c2n1`: 14.3 ± 1.1 µM.
Same read-out and setting: next, `Cc1cn2cc(-c3cc4ccc(N5CCN[C@@H](CO)C5)cc4oc3=O)cc(F)c2n1`: 11.9 ± 0.9 µM.
For `Cc1cn2cc(-c3cc4ccc(NC5CNC5)cc4oc3=O)cc(F)c2n1`, the Kd was 15.6 ± 0.7 µM.
With `Cc1nccn2cc(-c3cc4ccc(N5CCN[C@@H](C)C5)cc4oc3=O)nc12`, the Kd is 39.9 ± 11.5 µM.
In the case of `O=c1oc2cc(N3CCNCC3)ccc2cc1-c1ccc2ccccc2c1`, the Kd was found to be 34.1 ± 0.6 µM.
The same measure, in the same setting: the figure for `O=c1oc2cc(N3CCNCC3)ccc2cc1-c1ccc2ncccc2c1` is 17.8 ± 3.9 µM.

For another test the test system is unchanged. As to the kind of experiment: fluorescence polarization (intrinsic ligand fluorescence). As to conditions: Na+ 50 mM; 25 mM MES, 0.002% Triton X, pH 6.1, 25 °C, 0.1 μM ligand.
For the compound `CCN1CCN(c2ccc3cc(-c4cc(F)c5nc(C)cn5c4)c(=O)oc3c2)C[C@@H]1C`, the dissociation constant Kd is 3.06 ± 0.3 µM.
With `CCN1CCN(c2ccc3cc(-c4cn5cc(C)nc(C)c5n4)c(=O)oc3c2)C[C@@H]1C`, the dissociation constant Kd turned out to be 14.1 ± 0.9 µM.
The same measure, in the same setting: next, `COc1c(N2CCN[C@@H](C)C2)ccc2cc(-c3cc(F)c4nc(C)cn4c3)c(=O)n(C)c12`: 22.1 ± 2.7 µM.
For `COc1ccc2nc(-c3cc4ccc(N5CCNCC5)cc4oc3=O)cn2c1`, the Kd turned out to be 29.7 ± 3.0 µM.
Regarding `COc1ccn2cc(-c3cc4ccc(N5CCNCC5)cc4oc3=O)nc2c1`, the dissociation constant (Kd) was determined as 10.7 ± 0.1 µM.
Same read-out and setting: the figure for `Cc1cn2cc(-c3cc4ccc(N5CC6CCC(C5)N6)cc4oc3=O)cc(F)c2n1` is 71.0 ± 2.3 µM.
`Cc1cn2cc(-c3cc4ccc(N5CCN(CC6CC6)[C@@H](C)C5)cc4oc3=O)cc(F)c2n1` displayed a dissociation constant Kd of 2.7 ± 0.1 µM.
`Cc1cn2cc(-c3cc4ccc(N5CCN[C@@H](C)C5)cc4n(-c4ccccc4)c3=O)cc(F)c2n1` returned a Kd of 78.1 ± 9.7 µM.
On the same count and under the same terms, next, `Cc1cn2cc(-c3nc4ccc(N5CCN[C@@H](C)C5)cc4s3)c(F)cc2n1`: 38.9 ± 6.6 µM; `Cc1cn2cc(-c3nc4sc(N5CCN(C)CC5)cc4s3)cc(F)c2n1`: 35.7 ± 0.01 µM.
On the same count and under the same terms, the figure for `Cc1nc2c(F)cc(-c3cc4ccc(N5CCN[C@@H](C)C5)cc4oc3=O)cc2o1` is > 100 µM; for `O=c1oc2cc(N3CCNCC3)ccc2cc1-c1cn2ccc(C(F)(F)F)cc2n1` it is 21.8 ± 0.2 µM; for `O=c1oc2cc(N3CCNCC3)ccc2cc1-c1cn2ccc(Cl)cc2n1` it is 25.9 ± 6.0 µM.
In turn, `O=c1oc2cc(N3CCNCC3)ccc2cc1-c1cn2ccccc2n1` registered a Kd of 14.5 ± 1.3 µM.

For orientation: Kd means the concentration at which binding is half-saturated. Low values mean higher affinity, high ones lower affinity.
